The subject of this test is PGE2 production in 3T3 cells. Kind of test: PGE2 inhibition in 3T3 cells stimulated with calcium ionophore (Cayman PGE2 monoclonal EIA kit). As to conditions: Mus musculus, NIH3T3, at 0.488 μg/mL, relative to control cells not exposed, read-out: highest PGE2 inhibition observed. In kind it is cell-based. The protocol:
As is known in the art, prostaglandin E2 (PGE2) activity can be used to measure anti-inflammatory activity of a substance. PGE2 inhibitory activity can be measured by the ability of test samples to inhibit PGE2 production in 3T3 cells when stimulated with calcium ionophore. As understood in the art, aspirin and ibuprofen may be included in the assay as a positive control. The in vitro production of PGE2 from 3T3 cells was measured using the Cayman Chemical Prostaglandin E2 monoclonal EIA (Enzyme Immuno Assay) kit. The cells were exposed to extracts derived from dunder and molasses and stimulated with calcium ionophore. The cell supernatants were then assayed for PGE2 production. The cell cytotoxicity of the samples was tested against 3T3 cells to confirm that the observed PGE2 inhibition was not due to cell cytotoxicity. Aspirin and ibuprofen were used as positive controls.

Molecules are shown by their SMILES.

On to `CC(C)Cc1ccc(C(C)C(=O)O)cc1` (stereo not shown) [ibuprofen], for which the inhibition at 0.488 µg/mL worked out at 42.1%.

As a reminder, the inhibition is how much of the control response was suppressed.
